In test [1] the target is T1, Myotonin-protein kinase (Homo sapiens) (UniProt Q09013).
T1 sequence (whole entry): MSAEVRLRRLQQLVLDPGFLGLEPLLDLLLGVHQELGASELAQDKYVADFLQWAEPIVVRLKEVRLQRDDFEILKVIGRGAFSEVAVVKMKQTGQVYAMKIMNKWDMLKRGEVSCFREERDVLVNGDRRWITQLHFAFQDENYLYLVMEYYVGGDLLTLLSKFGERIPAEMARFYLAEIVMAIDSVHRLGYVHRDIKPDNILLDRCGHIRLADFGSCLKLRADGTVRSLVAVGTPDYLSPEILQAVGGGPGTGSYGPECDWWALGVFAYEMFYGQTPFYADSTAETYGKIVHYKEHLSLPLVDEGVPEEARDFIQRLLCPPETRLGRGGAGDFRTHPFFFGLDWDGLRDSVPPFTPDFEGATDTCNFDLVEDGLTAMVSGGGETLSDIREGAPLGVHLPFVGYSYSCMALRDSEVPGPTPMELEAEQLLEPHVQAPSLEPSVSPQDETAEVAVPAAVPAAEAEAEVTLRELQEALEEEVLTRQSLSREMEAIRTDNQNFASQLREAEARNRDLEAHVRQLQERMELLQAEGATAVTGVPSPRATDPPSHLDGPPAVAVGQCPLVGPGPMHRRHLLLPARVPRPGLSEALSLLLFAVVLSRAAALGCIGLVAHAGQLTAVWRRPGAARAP
As to the kind of experiment: Inhibition of DMPK (unknown origin) at 10 uM after 120 mins P33 radiolabeled kinase activity assay.

In test [2] the target is T2, Dual specificity tyrosine-phosphorylation-regulated kinase 3 (Homo sapiens) (UniProt O43781).
T2 sequence (whole entry): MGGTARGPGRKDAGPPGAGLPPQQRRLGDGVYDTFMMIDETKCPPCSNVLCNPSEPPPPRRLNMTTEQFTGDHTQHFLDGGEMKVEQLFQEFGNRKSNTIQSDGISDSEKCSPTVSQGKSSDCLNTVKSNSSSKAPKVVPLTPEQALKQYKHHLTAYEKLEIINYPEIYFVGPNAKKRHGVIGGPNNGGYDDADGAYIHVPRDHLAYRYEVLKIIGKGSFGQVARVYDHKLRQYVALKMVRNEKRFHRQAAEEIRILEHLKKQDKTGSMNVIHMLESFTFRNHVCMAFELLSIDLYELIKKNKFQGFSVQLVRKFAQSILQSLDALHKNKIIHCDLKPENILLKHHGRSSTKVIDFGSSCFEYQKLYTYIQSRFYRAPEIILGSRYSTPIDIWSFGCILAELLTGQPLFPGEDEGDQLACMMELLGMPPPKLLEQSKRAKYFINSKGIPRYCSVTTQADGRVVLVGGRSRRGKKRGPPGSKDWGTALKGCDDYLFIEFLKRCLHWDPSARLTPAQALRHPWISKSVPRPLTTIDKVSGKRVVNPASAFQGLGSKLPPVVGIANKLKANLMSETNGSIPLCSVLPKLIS
As to the kind of experiment: Inhibition of DYRK3 (unknown origin) at 10 uM after 120 mins P33 radiolabeled kinase activity assay.

The target in test [3] is T3, Rhodopsin kinase GRK1 (Homo sapiens) (UniProt Q15835).
T3 sequence (whole entry): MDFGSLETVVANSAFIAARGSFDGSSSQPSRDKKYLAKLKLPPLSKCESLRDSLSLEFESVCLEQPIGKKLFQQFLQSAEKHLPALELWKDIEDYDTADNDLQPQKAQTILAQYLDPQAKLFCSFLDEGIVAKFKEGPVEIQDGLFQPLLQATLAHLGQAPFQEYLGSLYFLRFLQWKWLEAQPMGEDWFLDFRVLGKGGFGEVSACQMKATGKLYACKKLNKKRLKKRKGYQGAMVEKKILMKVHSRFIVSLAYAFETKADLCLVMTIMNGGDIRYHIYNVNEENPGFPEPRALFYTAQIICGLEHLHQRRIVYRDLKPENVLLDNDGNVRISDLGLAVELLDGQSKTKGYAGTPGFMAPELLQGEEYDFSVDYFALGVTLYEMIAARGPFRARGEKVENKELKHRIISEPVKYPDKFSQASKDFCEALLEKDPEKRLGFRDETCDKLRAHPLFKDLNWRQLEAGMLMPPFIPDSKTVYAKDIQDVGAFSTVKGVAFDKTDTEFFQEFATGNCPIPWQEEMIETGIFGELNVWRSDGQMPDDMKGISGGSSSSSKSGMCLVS
Put plainly: Inhibition of GRK1 (unknown origin) at 10 uM after 120 mins P33 radiolabeled kinase activity assay.

In test [4] the target is T4, Protein kinase C epsilon type (Homo sapiens) (UniProt Q02156).
T4 sequence (whole entry): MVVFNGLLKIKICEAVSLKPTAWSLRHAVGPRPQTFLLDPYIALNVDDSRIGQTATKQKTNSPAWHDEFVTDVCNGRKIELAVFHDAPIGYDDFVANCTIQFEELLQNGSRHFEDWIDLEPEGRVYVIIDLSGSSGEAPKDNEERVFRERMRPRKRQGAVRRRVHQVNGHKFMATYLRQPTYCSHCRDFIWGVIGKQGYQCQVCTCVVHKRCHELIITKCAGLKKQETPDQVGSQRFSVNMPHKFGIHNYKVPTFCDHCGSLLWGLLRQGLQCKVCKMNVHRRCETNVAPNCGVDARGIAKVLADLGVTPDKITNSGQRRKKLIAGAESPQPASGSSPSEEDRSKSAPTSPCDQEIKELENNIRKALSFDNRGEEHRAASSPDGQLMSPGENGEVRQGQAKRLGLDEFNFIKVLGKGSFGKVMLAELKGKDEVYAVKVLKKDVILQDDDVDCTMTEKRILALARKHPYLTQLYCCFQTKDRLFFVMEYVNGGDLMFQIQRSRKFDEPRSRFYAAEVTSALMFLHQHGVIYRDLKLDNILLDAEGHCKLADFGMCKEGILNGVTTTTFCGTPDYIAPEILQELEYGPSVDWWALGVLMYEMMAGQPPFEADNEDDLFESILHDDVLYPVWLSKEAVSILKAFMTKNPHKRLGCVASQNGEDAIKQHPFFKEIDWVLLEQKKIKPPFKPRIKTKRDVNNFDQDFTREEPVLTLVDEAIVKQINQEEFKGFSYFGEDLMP
Put plainly: Inhibition of PKCepsilon (unknown origin) at 10 uM after 120 mins P33 radiolabeled kinase activity assay.

For test [5], the target named is Serine/threonine-protein kinase SIK3 (Homo sapiens) (UniProt Q9Y2K2). As to the kind of experiment: Inhibition of SIK3 (unknown origin) at 10 uM after 120 mins P33 radiolabeled kinase activity assay.
Serine/threonine-protein kinase SIK3 (Homo sapiens), sequence (Q9Y2K2 whole entry, looked up): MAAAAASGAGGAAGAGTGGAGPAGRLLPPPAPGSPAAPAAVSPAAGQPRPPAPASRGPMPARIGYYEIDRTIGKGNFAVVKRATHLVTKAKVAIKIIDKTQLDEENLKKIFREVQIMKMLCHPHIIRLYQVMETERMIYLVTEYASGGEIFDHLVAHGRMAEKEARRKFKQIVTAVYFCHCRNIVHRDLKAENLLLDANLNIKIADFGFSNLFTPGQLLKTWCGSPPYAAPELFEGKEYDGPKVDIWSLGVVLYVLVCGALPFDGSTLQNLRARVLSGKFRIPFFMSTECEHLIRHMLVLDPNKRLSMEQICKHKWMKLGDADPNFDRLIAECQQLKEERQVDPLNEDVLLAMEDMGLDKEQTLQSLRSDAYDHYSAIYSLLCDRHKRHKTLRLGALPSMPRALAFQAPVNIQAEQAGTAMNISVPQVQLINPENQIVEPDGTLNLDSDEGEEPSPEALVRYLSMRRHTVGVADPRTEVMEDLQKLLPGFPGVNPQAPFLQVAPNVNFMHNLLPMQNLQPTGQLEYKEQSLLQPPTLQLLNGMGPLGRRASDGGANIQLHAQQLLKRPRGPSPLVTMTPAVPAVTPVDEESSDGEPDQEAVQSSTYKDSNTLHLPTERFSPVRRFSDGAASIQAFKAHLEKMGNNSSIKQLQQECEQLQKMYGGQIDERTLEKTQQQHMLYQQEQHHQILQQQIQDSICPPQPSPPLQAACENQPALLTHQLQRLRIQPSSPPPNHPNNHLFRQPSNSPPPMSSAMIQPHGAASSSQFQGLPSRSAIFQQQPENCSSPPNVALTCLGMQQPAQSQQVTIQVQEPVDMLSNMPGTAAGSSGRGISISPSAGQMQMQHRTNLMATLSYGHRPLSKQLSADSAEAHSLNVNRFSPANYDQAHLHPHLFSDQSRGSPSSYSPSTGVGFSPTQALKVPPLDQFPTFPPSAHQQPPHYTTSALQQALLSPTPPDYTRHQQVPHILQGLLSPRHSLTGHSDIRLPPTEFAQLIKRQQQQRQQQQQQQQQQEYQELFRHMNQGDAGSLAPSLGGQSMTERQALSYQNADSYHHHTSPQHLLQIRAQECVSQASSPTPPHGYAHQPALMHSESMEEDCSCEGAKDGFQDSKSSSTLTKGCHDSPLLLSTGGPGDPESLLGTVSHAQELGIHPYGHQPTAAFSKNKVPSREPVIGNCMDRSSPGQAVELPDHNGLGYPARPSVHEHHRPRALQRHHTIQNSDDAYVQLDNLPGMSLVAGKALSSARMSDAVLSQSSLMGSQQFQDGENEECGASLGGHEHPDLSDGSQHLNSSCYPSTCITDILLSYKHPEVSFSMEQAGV
Test [6] deals with ALK tyrosine kinase receptor (Homo sapiens) (UniProt Q9UM73). Put plainly: Inhibition of ALK (unknown origin) at 10 uM after 120 mins P33 radiolabeled kinase activity assay.
ALK tyrosine kinase receptor (Homo sapiens), sequence (Q9UM73 19-1620 limits assumed): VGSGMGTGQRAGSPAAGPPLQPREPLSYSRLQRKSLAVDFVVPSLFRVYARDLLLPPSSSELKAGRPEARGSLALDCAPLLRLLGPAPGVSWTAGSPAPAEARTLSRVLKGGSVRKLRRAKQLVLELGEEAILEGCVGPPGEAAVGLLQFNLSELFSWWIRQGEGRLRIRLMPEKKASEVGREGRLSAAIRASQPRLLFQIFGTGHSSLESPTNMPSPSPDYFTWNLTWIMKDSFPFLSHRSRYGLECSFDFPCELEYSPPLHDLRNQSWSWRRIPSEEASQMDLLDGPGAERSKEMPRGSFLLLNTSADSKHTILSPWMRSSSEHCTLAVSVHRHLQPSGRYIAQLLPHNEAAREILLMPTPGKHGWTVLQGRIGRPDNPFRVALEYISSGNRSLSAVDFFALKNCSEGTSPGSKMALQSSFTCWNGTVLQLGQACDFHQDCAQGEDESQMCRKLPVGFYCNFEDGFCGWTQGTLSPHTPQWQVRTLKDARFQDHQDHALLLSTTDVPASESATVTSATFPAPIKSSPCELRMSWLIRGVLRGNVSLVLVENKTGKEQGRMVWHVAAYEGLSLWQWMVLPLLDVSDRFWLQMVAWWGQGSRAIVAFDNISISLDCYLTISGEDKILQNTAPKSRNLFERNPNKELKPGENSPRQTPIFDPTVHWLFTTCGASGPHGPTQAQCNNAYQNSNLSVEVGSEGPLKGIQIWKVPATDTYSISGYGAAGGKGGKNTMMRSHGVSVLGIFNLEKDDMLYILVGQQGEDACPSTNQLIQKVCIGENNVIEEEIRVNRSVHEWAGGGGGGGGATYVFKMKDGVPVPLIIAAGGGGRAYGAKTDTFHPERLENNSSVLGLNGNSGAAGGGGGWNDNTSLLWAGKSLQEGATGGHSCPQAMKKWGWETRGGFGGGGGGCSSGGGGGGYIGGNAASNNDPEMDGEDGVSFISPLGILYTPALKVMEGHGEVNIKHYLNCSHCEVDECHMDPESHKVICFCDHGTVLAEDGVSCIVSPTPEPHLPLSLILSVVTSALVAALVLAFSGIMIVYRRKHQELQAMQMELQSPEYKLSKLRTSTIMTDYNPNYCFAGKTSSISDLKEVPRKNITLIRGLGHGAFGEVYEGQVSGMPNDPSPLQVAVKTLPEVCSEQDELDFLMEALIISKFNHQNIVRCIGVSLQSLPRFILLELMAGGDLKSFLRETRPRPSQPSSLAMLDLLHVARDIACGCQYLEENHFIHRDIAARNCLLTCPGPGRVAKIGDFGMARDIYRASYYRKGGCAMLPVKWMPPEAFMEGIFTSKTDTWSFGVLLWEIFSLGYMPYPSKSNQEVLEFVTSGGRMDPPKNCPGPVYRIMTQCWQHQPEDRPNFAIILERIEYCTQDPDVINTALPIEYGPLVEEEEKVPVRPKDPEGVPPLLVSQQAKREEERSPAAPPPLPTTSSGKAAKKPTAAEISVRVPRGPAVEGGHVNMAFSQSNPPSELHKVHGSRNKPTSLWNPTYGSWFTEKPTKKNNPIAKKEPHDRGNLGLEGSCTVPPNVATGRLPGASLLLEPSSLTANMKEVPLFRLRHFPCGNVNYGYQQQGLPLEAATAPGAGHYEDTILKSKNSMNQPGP
The target in test [7] is Casein kinase I isoform gamma-3 (Homo sapiens) (UniProt Q9Y6M4). Put plainly: Inhibition of CK1gamma3 (unknown origin) at 10 uM after 120 mins P33 radiolabeled kinase activity assay.
Casein kinase I isoform gamma-3 (Homo sapiens), sequence (Q9Y6M4 whole entry, looked up, canonical isoform): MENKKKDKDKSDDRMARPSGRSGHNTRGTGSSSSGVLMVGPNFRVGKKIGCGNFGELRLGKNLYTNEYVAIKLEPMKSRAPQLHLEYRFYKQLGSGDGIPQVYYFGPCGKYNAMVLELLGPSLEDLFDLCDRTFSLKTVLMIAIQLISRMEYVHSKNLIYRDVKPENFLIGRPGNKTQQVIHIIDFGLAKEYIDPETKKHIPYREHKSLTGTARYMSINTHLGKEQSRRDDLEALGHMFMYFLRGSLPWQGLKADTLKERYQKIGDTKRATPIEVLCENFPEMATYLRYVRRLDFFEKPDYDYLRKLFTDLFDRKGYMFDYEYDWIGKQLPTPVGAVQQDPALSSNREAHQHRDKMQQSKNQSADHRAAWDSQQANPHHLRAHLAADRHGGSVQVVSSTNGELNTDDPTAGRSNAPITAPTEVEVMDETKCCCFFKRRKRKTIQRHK

In general, inhibition refers to the relative decrease from the control value, in per cent. In the case of `CS(=O)(=O)c1cccc(Nc2nccc(-c3sc(N4CCOCC4)nc3-c3cccc(NS(=O)(=O)c4c(F)cccc4F)c3)n2)c1`, the inhibition in test [1] is -2.69%; in test [2], 10.3%; in test [3], 6.04%; in test [4], -0.59%; in test [5], 99.6%; in test [6], 6.1%. Besides, the inhibition in test [7] came out at 5.39%.
With `CC(C)(C)c1cc(NC(=O)Nc2ccc(Oc3ccncc3)cc2)no1`, the inhibition in test [1] is -2.09%; in test [2] it was 71.4%; in test [3], 7.39%; in test [4] it was 0.69%; in test [5], 9.52%; in test [6] it was 17.4%. Moreover, in test [7], the inhibition turned out to be 3.82%.
For `COCCNC(=O)c1ccc2c(c1)nc(-c1cnc(-c3ccc(Cl)cc3)[nH]1)n2CCOC`, the inhibition in test [1] was -6.45%; in test [2] it was 8.42%; in test [3], 11.4%; in test [4], 1.13%; in test [5], 6.53%; in test [6], 0.02%. Further, in test [7], the inhibition was determined as 0.42%.

Source of the values: ChEMBL document CHEMBL3627608, “Crystal structures of human RIP2 kinase catalytic domain complexed with ATP-competitive inhibitors: Foundations for understanding inhibitor selectivity” (Bioorg Med Chem, 2015).
